Results from patent US10543212B2, “Substituted amines for treating cardiac diseases” (Cardurion Pharmaceuticals, LLC, priority 2017, dated 2020).

Molecular target: T1, Full-length, GST-tagged, human CaMKIIδ (Homo sapiens, UniProt Q13557)
T1 construct: Full-Length, Glutathione-S-Transferase(GST)-Tagged, Human CaMKIIδ was purchased from Carna Biosciences; purchased Carna Biosciences 02-111
Test: CaMKIIδ binding assay (TR-FRET with BODIPY-labeled probe ligand)
Procedure, shortened: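 TR-FRET probe-displacement binding: 0.5 nM GST-CaMKIIδ with 10 μg/mL calmodulin, 1 mM CaCl2, 0.21 nM Tb-anti-GST Ab and 300 nM BODIPY probe in HEPES pH 7.6 buffer. Eight-point 4-fold dilutions, 1 hr at room temperature. IC50 from logistic fit; 100% inhibition defined by 3 μM parent compound.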

[1] = Table 2, activity class for CaMKIIδ
[2] = CaMKIIδ binding assay, results of Table 2
[3] = CaMKIIδ binding assay, activity class per Table 2

T1 sequence (Q13557 1-478 isoform Q13557-12): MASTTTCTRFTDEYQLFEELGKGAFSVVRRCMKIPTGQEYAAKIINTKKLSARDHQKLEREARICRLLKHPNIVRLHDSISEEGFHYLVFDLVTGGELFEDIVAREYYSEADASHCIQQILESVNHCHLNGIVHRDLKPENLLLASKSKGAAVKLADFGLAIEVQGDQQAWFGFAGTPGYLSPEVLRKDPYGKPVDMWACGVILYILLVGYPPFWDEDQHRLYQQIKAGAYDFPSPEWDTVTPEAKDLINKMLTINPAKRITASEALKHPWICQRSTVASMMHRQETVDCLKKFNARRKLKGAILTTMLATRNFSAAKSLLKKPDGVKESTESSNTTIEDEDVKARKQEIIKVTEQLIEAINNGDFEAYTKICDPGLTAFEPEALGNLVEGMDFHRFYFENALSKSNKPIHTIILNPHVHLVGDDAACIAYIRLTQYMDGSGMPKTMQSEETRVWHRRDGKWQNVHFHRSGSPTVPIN

C[C@@H](Cn1cnnn1)Oc1cc(-c2cnc(Nc3cn([C@@H]4C[C@H]5CC[C@@H](C4)N5C4CCOCC4)nc3C(F)(F)F)nc2)ccc1Cl [Example 703, 5-(3-(((S)-1-(1H-tetrazol-1-yl)propan-2-yl)oxy)-4-chlorophenyl)-N-(1-((1R,3s,5S)-8-(tetrahydro-2H-pyran-4-yl)-8-azabicyclo[3.2.1]octan-3-yl)-3-(trifluoromethyl)-1H-pyrazol-4-yl)pyrimidin-2-amine]
IC50 [1]: < 10 nM

C[C@@H](Cn1cnnn1)Oc1cc(-c2cnc(Nc3cc4c(cc3Cl)CCN(C3COC3)CC4)nc2)ccc1C#N [Example 539, (S)-2-((1-(1H-tetrazol-1-yl)propan-2-yl)oxy)-4-(2-((8-chloro-3-(oxetan-3-yl)-2,3,4,5-tetrahydro-1H-benzo[d]azepin-7-yl)amino)pyrimidin-5-yl)benzonitrile]
IC50 [2]: < 10 nM

CCc1cc2c(cc1Nc1ncc(-c3ccc(C#N)c(O[C@@H](C)Cn4cnnn4)c3)cn1)CN(C1COC1)CC2 [Example 516, (S)-2-((1-(1H-tetrazol-1-yl)propan-2-yl)oxy)-4-(2-((6-ethyl-2-(oxetan-3-yl)-1,2,3,4-tetrahydroisoquinolin-7-yl)amino)pyrimidin-5-yl)benzonitrile]
IC50 [2]: 10 to 100 nM

C[C@@H](Cn1cnnn1)Oc1cc(-c2cnc(Nc3cn(CC4(O)CCN(C5CCOCC5)CC4)nc3C(F)(F)F)nc2)ccc1Cl [Example 905, (S)-4-((4-((5-(3-((1-(1H-tetrazol-1-yl)propan-2-yl)oxy)-4-chlorophenyl)pyrimidin-2-yl)amino)-3-(trifluoromethyl)-1H-pyrazol-1-yl)methyl)-1-(tetrahydro-2H-pyran-4-yl)piperidin-4-ol]
IC50 [3]: < 10 nM

C[C@@H](Cn1cnnn1)Oc1cc(-c2cnc(Nc3cn(C4(C(N)=O)CCC4)nc3OCC(F)(F)F)nc2)ccc1Cl [Example 917, (S)-1-(4-((5-(3-((1-(1H-tetrazol-1-yl)propan-2-yl)oxy)-4-chlorophenyl)pyrimidin-2-yl)amino)-3-(2,2,2-trifluoroethoxy)-1H-pyrazol-1-yl)cyclobutane-1-carboxamide]
IC50 [3]: < 10 nM

C[C@@H](Cn1cnnn1)Oc1cc(-c2cnc(Nc3cn(C4CC5(C4)CN(C4COC4)C5)nc3OCC(F)(F)F)nc2)ccc1Cl [Example 854, (S)-5-(3-((1-(1H-tetrazol-1-yl)propan-2-yl)oxy)-4-chlorophenyl)-N-(1-(2-(oxetan-3-yl)-2-azaspiro[3.3]heptan-6-yl)-3-(2,2,2-trifluoroethoxy)-1H-pyrazol-4-yl)pyrimidin-2-amine]
IC50 (Table 2, CaMKIIδ binding assay, activity given as class A/B/C): < 10 nM

COc1ccc(C(=O)O)cc1Nc1ncc(-c2ccc(Cl)c(O[C@@H](C)Cn3cnnn3)c2)cn1 [Example 540, (S)-3-((5-(3-((1-(1H-tetrazol-1-yl)propan-2-yl)oxy)-4-chlorophenyl)pyrimidin-2-yl)amino)-4-methoxybenzoic acid]
IC50 [2]: ≥ 100 nM

C[C@@H](Cn1cnnn1)Oc1cc(-c2cnc(Nc3cn(C4CCCNC4)nc3C(F)(F)F)nc2)ccc1Cl (stereo partly drawn) [Example 600, 5-(3-(((S)-1-(1H-tetrazol-1-yl)propan-2-yl)oxy)-4-chlorophenyl)-N-(1-(piperidin-3-yl)-3-(trifluoromethyl)-1H-pyrazol-4-yl)pyrimidin-2-amine]
IC50 [1]: < 10 nM

C[C@@H](Cn1cnnn1)Oc1cc(-c2cnc(Nc3cc(C(F)(F)F)n(C)n3)nc2)ccc1Cl [Example 711, (S)-5-(3-((1-(1H-tetrazol-1-yl)propan-2-yl)oxy)-4-chlorophenyl)-N-(1-methyl-5-(trifluoromethyl)-1H-pyrazol-3-yl)pyrimidin-2-amine]
IC50 [1]: ≥ 100 nM

COc1nc(N2CCCNCC2)ccc1Nc1ncc(-c2ccc(Cl)c(O[C@@H](C)Cn3cnnn3)c2)cn1 [Example 666, (S)-N-(6-(1,4-diazepan-1-yl)-2-methoxypyridin-3-yl)-5-(3-((1-(1H-tetrazol-1-yl)propan-2-yl)oxy)-4-chlorophenyl)pyrimidin-2-amine]
IC50 [1]: < 10 nM
